Measurements published in article PMC10923054, “Antiplasmodial peptaibols act through membrane directed mechanisms” (Cell Chemical Biology, 2024).
Where two headings read alike, the source gives them in different places. Square brackets hold non-standard residues; d marks the D form. Peptide text beside a SMILES is read from it. Leu(ol) = CC(C)C[C@H](N)CO; dIva = CC[C@@](C)(N)C(=O)O; Aib = CC(C)(N)C(=O)O

Assays:
[1] = tested on: Dd2-B2; assay type: cell-based, P. falciparum
Procedure: Screening of HZ NPDG-I resistant clones was performed at 1% parasitemia, 0.2% hematocrit with flow cytometry in V-shaped 96-well plates. Briefly, compounds were subjected to a 3-fold serial dilution with the highest concentration set at 4 μM or 8 μM. Eleven dilution points were included in addition to no-drug controls. Three technical replicates were set up for each compound at each dilution point. The Dd2-B2 parent line, or the clonal line 1B2, 2B3, 3A3, or 1E2 were added at 0.4% hematocrit and 1% parasitemia to the diluted compounds at a 1:1 ratio. The plate was incubated at 37°C for 72 h in a chamber filled with a hypoxic gas mixture (3% oxygen, 5% carbon dioxide, and 92% nitrogen). After incubation, a blood pellet was formed at the bottom of each well of the 96-well plate. Supernatant was removed without disturbing the pellet, and 20 μl of SYTO 61(1:10,000 dilution; Thermo Fisher Scientific, Cat No. S11343) in PBS was added to each well and incubated for 15 mins at room temperature. The cells in each well were then diluted with 180 μl of PBS and subjected to flow cytometry for parasitemia determination using the HTS (High-Throughput Sampler) of BD FACSCanto II (BD Biosciences, NJ). Flow cytometry data was analyzed using FlowJo Version 10.4.0. Dose response curves were generated and IC50 values obtained with GraphPad Prism Version 9.1.1.
A clone of the Dd2 strain (Dd2-B2) of P. falciparum was used for in vitro evolution of resistance against harzianin NPDG I. Three flasks of 1.2 x 10^8 parasites were continuously exposed to a stepwise-increasing concentration of the compound over ∼3 months starting from 20 nM up to a final concentration of 100 nM. Once a stable rightward shift in 72 h IC50 was observed, cultures were subjected to limiting dilution to obtained harzianin-resistant clones. Each clone was expanded, phenotyped to confirm resistance, and submitted for whole genome sequencing. An untreated flask of Dd2-B2 parasites was maintained in parallel throughout the course of in vitro selection as a control.

[2] = tested on: P. falciparum 3D7 transcripts; experiment: Real-time quantitative PCR validation; assay type: cell-based; conditions: normalized to serine-tRNA ligase; 3 biological replicates
Procedure: For RT-qPCR validation, total RNA was extracted as previously described from vehicle and HZ NPDG-I treated samples collected for the RNASeq analysis. A total of 500 ng of RNA from each sample was reverse transcribed into cDNA using the SuperScript First-Strand Synthesis System for RT-PCR (Invitrogen, Waltham, MA) with 100 ng of random hexamers. Synthesized cDNA from each of the 3 biological replicates was tested using Select Master Mix (Life Technologies, Carlsbad, CA) with 400 nM of forward and reverse primers using a QuantStudio 7 Flex qPCR machine (Thermo Fisher, Waltham, MA). SYBR fluorescence was normalized to passive reference dye ROX. Ct values were normalized using the […] method by normalizing to housekeeping gene serine-tRNA ligase (PF3D7_0717700) and then normalizing between the treated and untreated controls. PCR parameters included 50°C for 2 min, 95°C for 10 min, followed by 40 cycles of 95°C for 15 s, 55°C for 30 seconds, and 60°C for 30 seconds. Primer pair sequences are listed in full in Table S5.

[3] = tested on: PfPI4K_S1320L; experiment: Cross resistance screening (1536-well SYBR Green I); assay type: cell-based, P. falciparum; conditions: 72 h, mean ± SEM of 3 biological replicates
Procedure: (§1) Parasites grown in the Winzeler laboratory for screening and drug selections were maintained in RPMI 1640 medium supplemented with 0.25% Albumax I, 26 mM sodium bicarbonate, 0.1 mM hypoxanthine, and […] gentamicin. Human O+ whole blood obtained from the Blood Bank of The Scripps Research Institute was used for cultivation (human subjects IRB number: 125933). Blood-stage cultures were kept at 37°C with 5% CO2, 3% O2, and 92% N2. Monitoring of parasitemia and parasite morphology was performed using microscopic evaluation of thin blood smears that were first fixed with methanol, and then stained with Giemsa.
(§2) Cross resistance screening was performed with 0.3% parasitemia, 2.5% hematocrit, dispensed into 1536-well black, clear bottom plates with pre-spotted compound using a MultiFloTM Microplate dispenser (BioTek) at a volume of 8 μL/well. Plates where then incubated at 37°C for 72 h, after which 10× SYBR Green I (Invitrogen) in a lysis buffer (20 mM Tris/HCl, 5 mM EDTA, 0.16% (w/v) saponin, 1.6% (v/v) […]) was then added using a MultiFloTM Microplate dispenser (BioTek) at a volume of 2 μL/well. After 24 h incubation at room temperature, viability was measured via fluorescence using the EnVision® Multilabel Reader (PerkinElmer) (485 nm excitation, 530 nm emission). IC50 values were determined in CDD vault (https://www.collaborativedrug.com/).

[4] = tested on: PfACS_A597; experiment: as above; assay type: cell-based, P. falciparum; conditions: 72 h, mean ± SEM of 3 biological replicates
Procedure: as §1, §2

[5] = tested on: PfCARL_I1139K; experiment: as above; assay type: cell-based, P. falciparum; conditions: 72 h, mean ± SEM of 3 biological replicates
Procedure: as §1, §2

[6] = tested on: Attb; assay type: cell-based, P. falciparum; conditions: Asexual Blood Stage DHODH; mean ± SEM of 3 biological replicates
Procedure: as §1, §2

[7] = tested on: attb ScDHODH; assay type: cell-based, P. falciparum; conditions: Asexual Blood Stage DHODH; line expressing S. cerevisiae DHODH; mean ± SEM of 3 biological replicates
Procedure: as §1, §2

CC[C@H](C)[C@H](NC(=O)[C@H](CC(C)C)NC(=O)[C@H](CCC(N)=O)NC(=O)[C@@](C)(CC)NC(C)=O)C(=O)NC(C)(C)C(=O)N1CCC[C@H]1C(=O)N[C@](C)(CC)C(=O)N[C@@H](CC(C)C)C(=O)NC(C)(C)C(=O)N1CCC[C@H]1C(=O)N[C@H](CO)CC(C)C [HZ NPDG-I, harzianin NPDG I] (Ac-[dIva]QLI[Aib]P[dIva]L[Aib]P[Leu(ol)])
IC50 ([1]; flask 1, read-out: IC50, Dd2-B2 parent): 0.0536 nM
IC50 ([1]; flask 2, read-out: IC50, Dd2-B2 parent): 0.0222 nM
IC50 ([1]; flask 3, read-out: IC50, DD2-B2 parent): 0.0437 nM
RT-qPCR mean fold change, F3D7_0106100 [2]: −5.86
RT-qPCR mean fold change, MSTRG.194.1 [2]: 1.52
RT-qPCR mean fold change, MSTRG.363.2 [2]: 2.56
RT-qPCR mean fold change, PF3D7_0519200 [2]: −22.26
RT-qPCR mean fold change, PF37D_1419800 [2]: −7.27
EC50 [3]: 13 ± 3 nM
EC50 [4]: 23 ± 5 nM
EC50 [5]: 8 ± 1 nM
EC50 [6]: 5.7 ± 2.3 nM
EC50 [7]: 9.1 ± 1.5 nM
